Patent US10295463B2, “Device and method for investigating one or a plurality of phase objects” (Ludwig-Maximilians-Universität München, priority 2013, dated 2019)

Key:
bacteria = assay: Bacteria population growth and activity from intensity of a diffraction maximum, treatment with antibiotic; type: cell-based
Description: In FIG. 16, it can be seen that the intensity of the diffraction maximum decreases with time for the bacteria sample. This decrease is due to an increasing division of the bacteria, i.e. a continuous increase in the bacteria population or, in other words, an increase in the number of phase objects which increasingly disturb the constructive interference in the diffraction maximum and thereby lead to a decrease in the intensity. In FIG. 16, it can be further observed that with increasing time, the intensity increasingly fluctuates, which can be attributed to the activity of the cells.
Further shown in FIG. 17 is an exemplary enlarged section of the course of the measurement signals, in which the fluctuations of the signal can be clearly seen. By fitting a growth curve, which includes the division rate as a parameter, the division rate of the bacteria can be discerned from the signal.
It can be seen from FIG. 18 that the standard deviation increases with time. This standard deviation represents fluctuations of the signals on a short time scale which in turn are a measure for the activity of the bacteria, which will be explained in more detail with reference to FIG. 19 below.

[1] = tested on: Dictyostelium discoideum cell; assay: Cell motility by Fourier analysis of the temporal diffraction signal when an active substance is added; type: cell-based; conditions: active substance added to the medium in the sample chamber at time t=0; FIG. 14
Description: In FIG. 11b, a three-dimensional view is shown top left, a plan view is shown top right, and a cross section of the sample holder G is shown at the bottom. […] A surrounding medium or an active substance can be introduced into the receptacle, which is formed by the sample chamber. A sensor with a grid, which is arranged on a substrate, is located within the sample chamber. […] Furthermore, biological cells are located on the grid, where the reaction of the cells to the active substances is to be investigated. In particular, in the illustrated case is to be investigated how the motility of the cells changes due to the addition of the active substance.
In this case, the time axis runs from top to bottom and the frequency axis runs from left to right. At time t=0, the active substance, Latruncalin A, is added to the medium located in the sample chamber.

SMILES: CC1(C)S[C@@H]2[C@H](NC(=O)[C@H](N)c3ccccc3)C(=O)N2[C@H]1C(=O)O [AMP]
- normalized intensity of the diffraction maximum as a function of time (bacteria; 4 mg/l applied at 60 min., FIG. 19 row 3 column c): the intensity starts increasing again after 90 min.
- mean value of the standard deviation of the intensity as a function of time (bacteria; 4 mg/l applied at 60 min., FIG. 19 row 3 column d): a rapid decrease in the standard deviation, which is even more pronounced than in the second row
- normalized intensity of the diffraction maximum as a function of time (bacteria; double dose of 2 mg/1, FIG. 19 row 2 column c): the decrease in the normalized intensity flattens at 120 min.
- mean value of the standard deviation of the intensity as a function of time (bacteria; double dose of 2 mg/1, FIG. 19 row 2 column d): at 120 min. the standard deviation decreases significantly, which is again indicative of cell death
- normalized intensity of the diffraction maximum as a function of time (bacteria; treated after 60 min. of growth, concentration 1 mg/l, FIG. 19 row 1 column c): the normalized intensity decreases, which indicates a further growth of the bacteria population
- mean value of the standard deviation of the intensity as a function of time (bacteria; treated after 60 min. of growth, concentration 1 mg/l, FIG. 19 row 1 column d): the standard deviation reaches a plateau at 120 min. and decreases thereafter, which suggests that the bacteria cells die

SMILES: C/C1=C/C(=O)O[C@@H]2C[C@@H](CC[C@H](C)/C=C\C=C\CC1)O[C@@](O)([C@@H]1CSC(=O)N1)C2 [Latruncalin A, Latrunculin A]
- temporal course of the Fourier coefficients [1]: a rise in the Fourier coefficients, which subside again with increasing exposure time
